# Source: patent publication US12558356B2, “Immunophilin binding agents and uses thereof” (The Regents of the University of California, priority 2019, dated 2026)
# Like-named read-outs stand apart in the source and are kept apart here.
# What was measured:
# [1] = tested on: 139 kinases captured by the probe in Jurkat cells; assay: XO44 chemoproteomic probe kinome occupancy in live cells; type: cell-based; conditions: 100 nM, among 139 kinases captured by XO44 in Jurkat cells
# Jurkat cells [2] = assay: Drug washout, phosphotyrosine recovery (residence time in cells); type: cell-based; conditions: 100 nM for 1 h, then drug removed
# Jurkat cells [3] = assay: CD3 crosslinking (OKT3)-triggered T cell activation, phosphotyrosine Western blot; type: cell-based; conditions: for Total phospho-tyrosine level and phosphorylation of TCR signaling proteins: 100 nM
# K562 cells [4] = assay: Growth inhibition of K562 cells; type: cell-based
# Description: The unique dependency of FK506-dasatinib on FKBP proteins implied that it may be exploited to modulate the function of these molecules. […]. Meanwhile, the blocker compound […] dasatinib-treated samples (FIG. 13A, lanes 2 and 5). […].
# DDR2 = DDR2 (Homo sapiens (Human), UniProt Q16832); assay: In vitro kinase assay, ATP at apparent Km; type: biochemical
# Chain of DDR2 (Q16832 22-855, species assumed): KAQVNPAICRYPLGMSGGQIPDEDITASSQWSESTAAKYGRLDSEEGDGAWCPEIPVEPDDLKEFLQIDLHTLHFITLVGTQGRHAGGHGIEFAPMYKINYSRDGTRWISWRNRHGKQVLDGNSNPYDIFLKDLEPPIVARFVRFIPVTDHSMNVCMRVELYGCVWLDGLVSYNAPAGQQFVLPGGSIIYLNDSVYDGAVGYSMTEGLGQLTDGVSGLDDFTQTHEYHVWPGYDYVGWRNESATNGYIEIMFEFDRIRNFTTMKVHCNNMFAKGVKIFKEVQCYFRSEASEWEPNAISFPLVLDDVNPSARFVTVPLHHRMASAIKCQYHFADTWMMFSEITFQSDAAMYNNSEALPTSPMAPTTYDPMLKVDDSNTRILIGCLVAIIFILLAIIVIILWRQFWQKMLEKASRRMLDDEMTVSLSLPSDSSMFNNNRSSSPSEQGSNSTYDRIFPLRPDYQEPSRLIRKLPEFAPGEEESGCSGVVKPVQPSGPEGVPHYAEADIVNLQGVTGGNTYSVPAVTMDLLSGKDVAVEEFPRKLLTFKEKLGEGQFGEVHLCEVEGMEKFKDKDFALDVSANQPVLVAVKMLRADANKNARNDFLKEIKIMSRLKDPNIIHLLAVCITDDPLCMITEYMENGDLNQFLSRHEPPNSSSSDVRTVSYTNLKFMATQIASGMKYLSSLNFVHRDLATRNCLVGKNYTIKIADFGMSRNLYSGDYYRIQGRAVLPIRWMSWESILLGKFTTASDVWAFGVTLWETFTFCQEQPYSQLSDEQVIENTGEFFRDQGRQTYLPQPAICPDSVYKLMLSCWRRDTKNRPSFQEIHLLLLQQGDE
# Src / HA-FKBP12 = Src / HA-FKBP12 (Homo sapiens (Human), UniProt P12931+P62942); assay: Co-immunoprecipitation of Src with HA-FKBP12 in Jurkat cell lysates; type: binding
# Chain of Src / HA-FKBP12 (P12931 whole entry, looked up): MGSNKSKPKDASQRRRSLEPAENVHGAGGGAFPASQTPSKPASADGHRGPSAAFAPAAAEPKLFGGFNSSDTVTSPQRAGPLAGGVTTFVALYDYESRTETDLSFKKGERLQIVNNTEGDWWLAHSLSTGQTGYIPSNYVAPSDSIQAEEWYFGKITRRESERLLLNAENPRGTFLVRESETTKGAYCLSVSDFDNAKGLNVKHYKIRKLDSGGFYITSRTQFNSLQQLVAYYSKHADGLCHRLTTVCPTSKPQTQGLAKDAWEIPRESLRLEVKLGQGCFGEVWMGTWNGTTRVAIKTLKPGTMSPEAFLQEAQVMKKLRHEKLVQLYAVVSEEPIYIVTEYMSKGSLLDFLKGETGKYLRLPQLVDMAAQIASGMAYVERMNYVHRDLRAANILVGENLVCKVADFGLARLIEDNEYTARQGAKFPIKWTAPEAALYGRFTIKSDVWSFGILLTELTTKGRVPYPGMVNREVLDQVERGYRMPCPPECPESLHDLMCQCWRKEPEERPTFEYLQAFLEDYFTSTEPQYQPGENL
# Chain of Src / HA-FKBP12 (P62942 whole entry, looked up): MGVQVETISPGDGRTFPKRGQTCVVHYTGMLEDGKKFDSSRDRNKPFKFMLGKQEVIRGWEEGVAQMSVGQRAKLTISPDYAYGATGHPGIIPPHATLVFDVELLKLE
# K562 cells [5] = assay: Growth inhibition of K562 cells; type: cell-based; remark: listed apart in the source
# [6] = target: T1, Src kinase domain and FKBP12 (Homo sapiens (Human), UniProt P12931+P62942); assay: Ternary complex formation of Src, FKBP12 and compound; type: binding
# T1 sequence (P12931 whole entry, looked up, species assumed, the tested form may be a part): as the sequence (P12931 whole entry, looked up) above
# T1 sequence (P62942 whole entry, looked up, species assumed, the tested form may be a part): as the sequence (P62942 whole entry, looked up) above
# Experimental: Fractions of 0.5 mL were collected and analyzed by SDS-PAGE.
# Pulldown was performed with Jurkat cell lysate (1 mg/mL, 200 μL), supplemented with 2 μg HA-FKBP12.
# Src = Src (Homo sapiens (Human), UniProt P12931); type: biochemical
# Chain of Src (P12931 whole entry, species assumed, the tested form may be a part): as the sequence (P12931 whole entry, looked up) above
# [7] = target: T1, Src kinase domain and FKBP12; assay: Ternary complex formation by size exclusion chromatography; type: binding; conditions: ~50 kDa complex
# Csk = Csk (Homo sapiens (Human), UniProt P41240); assay: In vitro kinase assay, ATP at apparent Km; type: biochemical
# Chain of Csk (P41240 whole entry, species assumed): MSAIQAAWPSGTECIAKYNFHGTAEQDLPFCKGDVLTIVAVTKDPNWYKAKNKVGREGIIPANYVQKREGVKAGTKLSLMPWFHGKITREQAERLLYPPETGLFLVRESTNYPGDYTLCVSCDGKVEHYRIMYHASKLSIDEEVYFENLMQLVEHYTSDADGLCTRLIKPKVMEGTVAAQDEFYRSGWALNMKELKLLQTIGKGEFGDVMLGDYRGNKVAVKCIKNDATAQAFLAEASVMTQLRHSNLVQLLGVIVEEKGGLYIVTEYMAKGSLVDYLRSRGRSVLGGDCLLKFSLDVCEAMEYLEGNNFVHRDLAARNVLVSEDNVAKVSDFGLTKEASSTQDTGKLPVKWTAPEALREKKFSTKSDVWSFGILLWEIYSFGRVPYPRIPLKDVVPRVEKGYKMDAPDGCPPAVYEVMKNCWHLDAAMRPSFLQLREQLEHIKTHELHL
# [8] = tested on: panel of 485 protein kinases; assay: Kinase selectivity profiling; type: biochemical; conditions: 485 kinases, 10 nM inhibitor, 10 μM FKBP12
# FKBP12 [9] = target: T2, FKBP12 (Homo sapiens (Human), UniProt P62942); assay: FKBP12 binding
# T2 sequence (P62942 whole entry): as the sequence (P62942 whole entry, looked up) above
# [10] = tested on: p-Tyr signaling in Jurkat cells; assay: Phosphotyrosine / TCR signaling in Jurkat cells (Western blot); type: cell-based
# Experimental: Jurkat cells (1×10^6/mL) were treated with 100 nM of the indicated compounds for 1 h, then were washed 3 times with PBS and resuspended in culture media. Samples were taken at the indicated time points and lysed immediately.
# FKBP12 [11] = target: T2, FKBP12; assay: FKBP12 binding assay (fluorescence polarization)
# [12] = target: T1, Src kinase domain and FKBP12; assay: Differential scanning fluorimetry; type: binding
# MCF7 cells = assay: FKBP dependence of Rapamycin/RapaLink-1 function in MCF7 cells; type: cell-based; conditions: MCF7 cells dosed at 50% confluency, 37° C., 24 h
# Experimental: FIG. 4. […] MCF7 cells dosed at 50% confluency, 37° C., 24 h.
# glioblastoma PDX = conditions: mice; Fan, Q. et al., 2017, Cancer Cell; cited from earlier work
# p-S6 level in MCF7 cells = assay: Western blot of p-S6 level in MCF7 cells after combination treatment with Rapa/Rapalink and candidate compound (blockade score); type: cell-based; conditions: 24 h, p-S6 level as fraction of DMSO control; for RapaLink-1 Blockade: 10 nM Rapalink + 10 μM candidate compound
# [13] = tested on: mTOR signaling in brain and skeletal muscle; assay: In vivo brain/periphery mTOR inhibition in mouse model, blocker combined with rapamycin or RapaLink-1
# KRAS^G12C and CypA = KRAS^G12C and CypA (Homo sapiens (Human), UniProt P01116+P62937, G12C); assay: Complex of labeled KRAS G12C with CypA; type: binding
# [14] = Jurkat cells stimulated with OKT3
# [15] = 10 μM recombinant FKBP12 in assay buffer
# [16] = standard assay conditions, no FKBP12
smiles,measurement,setting,value
"Cc1nc(Nc2ncc(C(=O)Nc3c(C)cccc3Cl)s2)cc(N2CCN(CCO)CC2)n1 [Dasatinib, dasatinib, reference compound]",Number of kinases inhibited >70%,[1],9
same,Time after drug washout to restored phosphotyrosine signal,Jurkat cells [2],≤ 1 h
same,Total phospho-tyrosine level and phosphorylation of TCR signaling proteins,Jurkat cells [3]; [14],dampened
same,IC50,"K562 cells [4]; Homo sapiens, K562, absent ZZY05-026 (RapaBlock)",0.063 nM
same,IC50,"K562 cells [4]; Homo sapiens, K562, with 10 μM RapaBlock",0.16 nM
CO[C@H]1C[C@@H](C)C/C(C)=C/[C@@H](CCCC(=O)N2CCN(c3cc(Nc4ncc(C(=O)Nc5c(C)cccc5Cl)s4)nc(C)n3)CC2)C(=O)C[C@H](O)[C@@H](C)[C@@H](/C(C)=C/[C@@H]2CC[C@@H](O)[C@H](OC)C2)OC(=O)[C@@H]2CCCCN2C(=O)C(=O)[C@]2(O)O[C@H]1[C@@H](OC)C[C@H]2C [FK506-dasatinib],Extent of kinase inhibition at 1 μM,"DDR2; 10 μM recombinant FKBP12, 1 μM inhibitor",failing to fully inhibit
same,Potency of inhibition upon FKBP12 supplementation,DDR2; [15],inferior to dasatinib
same,IC50 compared to dasatinib,DDR2; [16],more than ten-fold greater
same,Co-immunoprecipitation of Src with HA-FKBP12,Src / HA-FKBP12,co-immunoprecipitated
same,kinase inhibition,"Src, Csk and DDR2",attenuated kinase inhibition
same,concentration inhibiting growth of K562 cells,K562 cells [5],sub-nanomolar
same,growth inhibitory activity in presence of RapaBlock,K562 cells [5]; with RapaBlock,diminished by RapaBlock
same,ternary complex formation,[6],forms a stable ternary complex
same,Number of kinases inhibited >70%,[1],9
same,Time after drug washout to restored phosphotyrosine signal,Jurkat cells [2],> 24 h
same,Inhibition of phosphotyrosine signaling in the presence of blocker,Jurkat cells [3]; 100 nM FK506-dasatinib + 10 μM RapaBlock,completely neutralized
same,Total phospho-tyrosine level and phosphorylation of TCR signaling proteins,Jurkat cells [3]; [14],dampened
same,Lowest effective concentration,Jurkat cells [3]; [14],≤ 10 nM
same,EC50,"Jurkat cells [3]; Jurkat cells stimulated with OKT3, read-out: EC50 (phosphotyrosine signal)",3.4 nM
same,Potency of inhibition upon FKBP12 supplementation,Src; [15],equipotent
same,IC50 compared to dasatinib,Src; [16],more than ten-fold greater
same,Complex formation of Src kinase domain and FKBP12,[7],induced the formation of a stable complex
same,Potency of inhibition upon FKBP12 supplementation,Csk; [15],equipotent
same,IC50 compared to dasatinib,Csk; [16],more than ten-fold greater
same,Number of kinases inhibited >70% by both inhibitors,[8],23
same,FKBP12 binding,FKBP12 [9],maintains potent FKBP12 binding
same,inhibition of TCR signaling / cellular activity,[10],potently inhibits TCR signaling
same,cellular retention time,"[10]; Jurkat cells, 1 h treatment then washout, monitored over 24 h",long cellular retention time
same,Kd,"FKBP12 [11]; fluorescence polarization assay, read-out: Kd (binding to FKBP12)",23 nM
same,Stabilization of both proteins toward thermal denaturation,[12],to a greater extent than dasatinib alone
same,Fold increase of IC50 on addition of RapaBlock,K562 cells [4]; 10 μM RapaBlock,> 200 fold
same,IC50,K562 cells [4]; absent ZZY05-026 (RapaBlock),0.053 nM
same,IC50,K562 cells [4]; with 10 μM RapaBlock,10.2 nM
CO[C@@H]1C[C@@H]2CC[C@@H](C)[C@@](O)(O2)C(=O)C(=O)N2CCCC[C@@H]2C(=O)O[C@H]([C@H](C)C[C@H]2CC[C@H](OCCOCc3cn(CCOCCOCCOCCOCCOCCOCCOCCOCCC(=O)NCCCCn4nc(-c5ccc6oc(N)nc6c5)c5c(N)ncnc54)nn3)[C@H](OC)C2)CC(=O)[C@H](C)/C=C(\C)[C@H](O)[C@@H](OC)C(=O)[C@H](C)C[C@H](C)/C=C/C=C/C=C/1C [RapaLink-1],dependence of function on FKBP,MCF7 cells,FKBP is essential for the function
same,growth of glioblastoma PDX,glioblastoma PDX,suppresses growth
"CO[C@H]1C[C@@H]2CC[C@@H](C)[C@@](O)(O2)C(=O)C(=O)N2CCCC[C@H]2C(=O)O[C@H]([C@H](C)C[C@@H]2CC[C@@H](O)[C@H](OC)C2)CC(=O)[C@H](C)/C=C(\C)[C@@H](O)[C@@H](OC)C(=O)[C@H](C)C[C@H](C)/C=C/C=C/C=C/1C [Rapamycin, rapamycin]",dependence of function on FKBP,MCF7 cells,FKBP is essential for the function
CCC(C)(C)C(=O)C(=O)N1CCCC[C@H]1C(=O)O[C@H](CCc1ccc(OC)c(OC)c1)c1cccc(NC(=O)Cc2cccc[n+]2[O-])c1 [ZZY03-087],Rapamycin Blockade,p-S6 level in MCF7 cells; 10 nM Rapa + 10 μM candidate compound,3 (>70%)
same,RapaLink-1 Blockade,p-S6 level in MCF7 cells,0 (<20%)
same,Kd,FKBP12 [11]; read-out: Kd FKBP12,28.8 nM
same,In Vivo,"[13]; combination with rapamycin, muscle and brain","Blocks rapamycin in muscle, potentiates rapamycin in brain"
CO[C@H]1C/C(C)=C/[C@@H](CCCC(=O)N2CCN(c3cc(Nc4ncc(C(=O)Nc5c(C)cccc5Cl)s4)nc(C)n3)CC2)C(=O)C[C@H](O)[C@@H](C)[C@@H](/C(C)=C/[C@@H]2CC[C@@H](O)[C@H](OC)C2)OC(=O)[C@@H]2CCCCN2C(=O)C(=O)[C@]2(O)O[C@H]([C@@H](OC)C1)[C@@H](OC)C[C@H]2C [ZZY05-022],durability of effect after washout,"[10]; Jurkat cells, 100 nM, 1 h, washed 3 times with PBS",durable after washout
CO[C@H]1C/C(C)=C/[C@@H](CCCc2ccccn2)C(=O)C[C@H](O)[C@@H](C)[C@@H](/C(C)=C/[C@@H]2CC[C@@H](O)[C@H](OC)C2)OC(=O)[C@@H]2CCCCN2C(=O)C(=O)[C@]2(O)O[C@H]([C@@H](OC)C1)[C@@H](OC)C[C@H]2C [ZZY05-085],RapaLink-1 Blockade,p-S6 level in MCF7 cells,3 (>70%)
same,Kd,FKBP12 [11],1.5 nM
same,In Vivo,"[13]; combination with Rapalink-1, dose not given, brain",Appears to have blocked Rapalink-1 in brain
CO[C@H]1C/C(C)=C/[C@@H](CCCc2cccc[n+]2[O-])C(=O)C[C@H](O)[C@@H](C)[C@@H](/C(C)=C/[C@@H]2CC[C@@H](O)[C@H](OC)C2)OC(=O)[C@@H]2CCCCN2C(=O)C(=O)[C@]2(O)O[C@H]([C@@H](OC)C1)[C@@H](OC)C[C@H]2C [ZZY05-092 / ZZY06-041],RapaLink-1 Blockade,p-S6 level in MCF7 cells,3 (>70%)
same,Kd,FKBP12 [11]; read-out: Kd FKBP12,2.5 nM
same,In Vivo,"[13]; 1 mg/kg Rapalink-1 + 40 mg/kg compound, muscle and brain",Dose: 1 mg/kg Rapalink-1 + 40 mg/kg ZZY05- 092 Blocks Rapalink-1 in muscle; Potentiates Rapalink-1 in brain
C=CC(=O)N1CCN(c2nc(NCCC(=O)NCCNC(=O)CCC[C@@H](C)[C@@H](O)[C@H]3C(=O)N[C@@H](CC)C(=O)N(C)CC(=O)N(C)[C@@H](CC(C)C)C(=O)N[C@@H](C(C)C)C(=O)N(C)[C@@H](CC(C)C)C(=O)N[C@@H](C)C(=O)N[C@H](C)C(=O)N(C)[C@@H](CC(C)C)C(=O)N(C)[C@@H](CC(C)C)C(=O)N(C)[C@@H](C(C)C)C(=O)N3C)nc3c(F)c(-c4c(O)cccc4F)c(Cl)cc23)CC1 [ZZY07-014],melting curve of KRAS•CypA•compound complex,KRAS^G12C and CypA,2-stage melting curve
